# Key:
# [1] = molecular target: T1, Cysteinyl leukotriene receptor 1 (Cavia porcellus, UniProt Q2NNR5); test: Inhibition of [3H]LTD4 binding to guinea-pig lung membranes; format: tissue-based, Membrane
# T1 sequence (Q2NNR5 whole entry): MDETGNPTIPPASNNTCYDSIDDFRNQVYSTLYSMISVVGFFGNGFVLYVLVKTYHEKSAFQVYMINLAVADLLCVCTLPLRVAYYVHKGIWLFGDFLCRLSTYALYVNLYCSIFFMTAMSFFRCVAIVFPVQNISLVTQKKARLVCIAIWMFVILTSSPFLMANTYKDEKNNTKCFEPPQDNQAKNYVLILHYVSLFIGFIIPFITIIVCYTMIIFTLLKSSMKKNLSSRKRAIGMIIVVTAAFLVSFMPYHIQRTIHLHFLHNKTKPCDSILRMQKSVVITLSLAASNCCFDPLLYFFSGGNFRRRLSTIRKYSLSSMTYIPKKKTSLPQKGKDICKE
# [2] = molecular target: T2, Cysteinyl leukotriene receptor 1 (Cavia porcellus) (UniProt Q2NNR5); test: Compound was evaluated for its antagonist affinity at 10 (uM) on guinea-pig trachea rings against LTD4 receptor; format: functional, tissue-based
# T2 sequence (whole entry): T1 sequence (Q2NNR5 whole entry)
# [3] = tested on: Cavia porcellus; test: Compound was tested in vivo for antagonistic potency of LTD4 induced contractions of guinea-pig trachea after oral administration; format: functional; conditions: read-out: ID50 (the source's name)
# [4] = molecular target: T2, Cysteinyl leukotriene receptor 1 (Cavia porcellus); test: (§1) Compound was evaluated for its antagonist affinity at 0.1 uM on guinea-pig trachea rings against LTD4 receptor; format: functional, tissue-based
# [5] = molecular target: T3, Cysteinyl leukotriene receptor 1 (Homo sapiens) (UniProt Q9Y271); test: Compound was evaluated for its antagonist affinity against LTD4 on human bronchial muscle; format: functional, tissue-based; conditions: Muscle tissue
# T3 sequence (whole entry): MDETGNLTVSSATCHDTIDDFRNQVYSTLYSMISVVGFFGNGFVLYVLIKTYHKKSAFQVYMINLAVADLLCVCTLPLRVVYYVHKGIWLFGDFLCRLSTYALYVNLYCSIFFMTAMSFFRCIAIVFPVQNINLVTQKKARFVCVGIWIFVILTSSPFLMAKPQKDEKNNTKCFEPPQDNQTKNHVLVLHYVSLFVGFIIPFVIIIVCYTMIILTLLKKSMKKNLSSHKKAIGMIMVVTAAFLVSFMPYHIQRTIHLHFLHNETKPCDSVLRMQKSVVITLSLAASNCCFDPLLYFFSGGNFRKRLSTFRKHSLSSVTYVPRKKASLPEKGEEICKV
# [6] = molecular target: T1, Cysteinyl leukotriene receptor 1; test: Compound was evaluated for its binding affinity on guinea-pig ileum; format: tissue-based
# [7] = species: Cavia porcellus; test: Compound was evaluated for its agonist activity on guinea-pig ileum, value expressed as the negative logarithm of the ED50 value; format: functional
# [8] = molecular target: T2, Cysteinyl leukotriene receptor 1 (Cavia porcellus); test: Compound was evaluated for its antagonist affinity at 1 uM on guinea-pig trachea rings against LTD4 receptor; format: functional, tissue-based
# [9] = molecular target: T1, Cysteinyl leukotriene receptor 1; test: as §1; format: functional, tissue-based; conditions: read-out: pA2 (converted)
# [10] = species: Cavia porcellus; test: spontaneously compound was tested for oral activity against LTD4 in spontaneously-breathing guinea pigs; format: functional; conditions: read-out: ID50 (the source's name)
structure (smiles),measurement,setting,value
O=C(O)CCC[C@H](O)[C@@H](/C=C/CCCc1ccccc1)Sc1ccc(C(=O)O)cc1,Ki,[1],> 100000 nM
O=C(O)CCC[C@H](O)[C@@H](/C=C\CCCCCCCCCCCc1ccccc1)Sc1ccc(C(=O)O)cc1,Ki,[1],1260 nM
O=C(O)CCC[C@H](O)[C@@H](/C=C\CCCCCCCCCOc1ccccc1)Sc1ccc(C(=O)O)cc1,Ki,[1],316 nM
O=C(O)CCC[C@H](O)[C@@H](/C=C\Cc1ccc(OCCCCOc2ccccc2)cc1)Sc1ccc(C(=O)O)cc1,pKB,[2],8.3
same,ED50,[3],~3 mg/kg
O=C(O)CCCCC(/C=C\Cc1ccc(OCCCCOc2ccccc2)cc1)Sc1ccc(C(=O)O)cc1 (stereo unspecified),pKB,[4],8.3
same,pKB,[5],6.8
CCCCC/C=C\C\C=C/C=C/C=C/[C@@H](Sc1ccc(C(=O)O)cc1)[C@@H](O)CCCC(=O)O,Ki,[6],100 nM
CCCCC/C=C\C\C=C/C=C/C=C/[C@@H](SC[C@H](N)C(=O)NCC(=O)O)[C@@H](O)CCCC(=O)O [LEUKOTRIENE D4],pD2,[7],8.4
O=C(O)CCC[C@H](O)[C@@H](/C=C\CCc1ccccc1)Sc1ccc(C(=O)O)cc1,Ki,[1],> 100000 nM
O=C(O)CCC[C@H](O)[C@@H](/C=C/c1cccc(OCCCCOc2ccccc2)c1)Sc1ccc(C(=O)O)cc1,pKB,[2],6.8
O=C(O)CCCC(/C=C\Cc1ccc(OCCCCOc2ccccc2)cc1)Sc1ccc(C(=O)O)cc1 (stereo unspecified),pKB,[8],7
O=C(O)CCC[C@H](O)[C@@H](/C=C\Cc1ccccc1OCCCOc1ccccc1)Sc1ccc(C(=O)O)cc1,pKB,[2],< 5
CCCCC/C=C\C\C=C/C=C/C=C/[C@@H](Sc1ccccc1C(=O)O)[C@@H](O)CCCC(=O)O,pD2,[7],6.9
same,Ki,[6],25.1 nM
CCCCC/C=C\C\C=C/C=C/C=C/[C@@H](SCC(=O)O)[C@@H](O)CCCC(=O)O,pD2,[7],8.5
same,Ki,[6],2 nM
O=C(O)CCC[C@H](O)[C@@H](/C=C/CCc1ccccc1)Sc1ccc(C(=O)O)cc1,Ki,[1],> 100000 nM
O=C(O)CCC[C@H](O)[C@@H](/C=C\CCCCCCCCc1ccccc1)Sc1ccc(C(=O)O)cc1,Ki,[1],316 nM
O=C(O)c1ccc(SC(/C=C\Cc2ccc(OCCCCOc3ccccc3)cc2)C(=O)O)cc1 (stereo unspecified),pKB,[8],6.4
O=C(O)CCC[C@H](O)[C@@H](/C=C\c1ccccc1OCCCCOc1ccccc1)Sc1ccc(C(=O)O)cc1,pKB,[2],< 5
CCCCC/C=C\C\C=C/C=C/C=C/[C@@H](Sc1cccc(C(=O)O)c1)[C@@H](O)CCCC(=O)O,pD2,[7],8.2
same,Ki,[6],2 nM
O=C(O)CCC[C@H](O)[C@@H](/C=C\CCCCCc1ccccc1)Sc1ccc(C(=O)O)cc1,Ki,[1],20000 nM
O=C(O)CC(/C=C\Cc1ccc(OCCCCOc2ccccc2)cc1)Sc1ccc(C(=O)O)cc1 (stereo unspecified),pKB,[8],6.9
O=C(O)CCC[C@H](O)[C@@H](/C=C\CCCCCCCCCCCCCc1ccccc1)Sc1ccc(C(=O)O)cc1,Ki,[1],5010 nM
O=C(O)CCC[C@H](O)[C@@H](/C=C\c1ccc(OCCCCOc2ccccc2)cc1)Sc1ccc(C(=O)O)cc1,pKB,[2],6.5
O=C(O)CCC[C@H](O)[C@@H](/C=C\CCCCCCCCCc1ccccc1)Sc1ccc(C(=O)O)cc1,Ki,[1],251 nM
O=C(O)CCC[C@H](O)[C@@H](/C=C\Cc1cccc(OCCCOc2ccccc2)c1)Sc1ccc(C(=O)O)cc1,pKB,[2],< 5
O=C(O)CCC[C@H](O)[C@@H](/C=C\CCCCCCCCOc1ccccc1)Sc1ccc(C(=O)O)cc1,Ki,[1],631 nM
O=C(O)CCC[C@H](O)[C@@H](/C=C\c1cccc(OCCCCOc2ccccc2)c1)Sc1ccc(C(=O)O)cc1,pKB,[2],< 5
"O=C(O)CCC(/C=C/Cc1ccc(OCCCCOc2ccccc2)cc1)Sc1ccc(C(=O)O)cc1 (single isomer, unassigned; (-))",Kb,[9],100 nM
O=C(O)CCC(/C=C\Cc1ccc(OCCCCOc2ccccc2)cc1)Sc1ccc(C(=O)O)cc1 (stereo unspecified),ED50,[10],2 mg/kg
same,pKB,[4],8.4
same,pKB,[5],8
"O=C(O)CCC(/C=C/Cc1ccc(OCCCCOc2ccccc2)cc1)Sc1ccc(C(=O)O)cc1 (single isomer, unassigned; (+))",Kb,[9],3.98 nM

# From ChEMBL document CHEMBL1151546, “A new structural analogue antagonist of peptido-leukotrienes. The discovery of bay x7195” (Bioorg Med Chem Lett, 1993)
